≈ marks a conversion by molar mass, not a printed value.
Tests used:
Histone deacetylase 11 [1] = target: T1, Histone deacetylase 11 (Homo sapiens, UniProt Q96DB2); test: Inhibition of full length recombinant human HDAC11 expressed in baculoviral expression system using FAM-RHKK as substrate by electrophoretic mobility shift assay
T1 sequence (Q96DB2 whole entry): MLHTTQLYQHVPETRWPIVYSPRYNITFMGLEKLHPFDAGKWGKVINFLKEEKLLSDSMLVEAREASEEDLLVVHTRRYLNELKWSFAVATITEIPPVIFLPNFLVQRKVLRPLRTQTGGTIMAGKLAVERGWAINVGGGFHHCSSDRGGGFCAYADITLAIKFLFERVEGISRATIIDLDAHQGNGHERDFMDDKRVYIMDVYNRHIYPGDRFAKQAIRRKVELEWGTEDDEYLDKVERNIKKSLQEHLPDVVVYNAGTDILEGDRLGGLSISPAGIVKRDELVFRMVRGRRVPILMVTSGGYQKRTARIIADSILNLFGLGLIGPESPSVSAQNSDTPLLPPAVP

[2] = Intrinsic clearance in mouse liver microsomes; type: ADME, microsome; conditions: read-out: CLH
[3] = target: T2, Protein deacetylase HDAC6 (Homo sapiens, UniProt Q9UBN7); test: Inhibition of full length recombinant human HDAC6 using fluorescent-labeled peptide as substrate by electrophoretic mobility shift assay
T2 sequence (Q9UBN7 whole entry): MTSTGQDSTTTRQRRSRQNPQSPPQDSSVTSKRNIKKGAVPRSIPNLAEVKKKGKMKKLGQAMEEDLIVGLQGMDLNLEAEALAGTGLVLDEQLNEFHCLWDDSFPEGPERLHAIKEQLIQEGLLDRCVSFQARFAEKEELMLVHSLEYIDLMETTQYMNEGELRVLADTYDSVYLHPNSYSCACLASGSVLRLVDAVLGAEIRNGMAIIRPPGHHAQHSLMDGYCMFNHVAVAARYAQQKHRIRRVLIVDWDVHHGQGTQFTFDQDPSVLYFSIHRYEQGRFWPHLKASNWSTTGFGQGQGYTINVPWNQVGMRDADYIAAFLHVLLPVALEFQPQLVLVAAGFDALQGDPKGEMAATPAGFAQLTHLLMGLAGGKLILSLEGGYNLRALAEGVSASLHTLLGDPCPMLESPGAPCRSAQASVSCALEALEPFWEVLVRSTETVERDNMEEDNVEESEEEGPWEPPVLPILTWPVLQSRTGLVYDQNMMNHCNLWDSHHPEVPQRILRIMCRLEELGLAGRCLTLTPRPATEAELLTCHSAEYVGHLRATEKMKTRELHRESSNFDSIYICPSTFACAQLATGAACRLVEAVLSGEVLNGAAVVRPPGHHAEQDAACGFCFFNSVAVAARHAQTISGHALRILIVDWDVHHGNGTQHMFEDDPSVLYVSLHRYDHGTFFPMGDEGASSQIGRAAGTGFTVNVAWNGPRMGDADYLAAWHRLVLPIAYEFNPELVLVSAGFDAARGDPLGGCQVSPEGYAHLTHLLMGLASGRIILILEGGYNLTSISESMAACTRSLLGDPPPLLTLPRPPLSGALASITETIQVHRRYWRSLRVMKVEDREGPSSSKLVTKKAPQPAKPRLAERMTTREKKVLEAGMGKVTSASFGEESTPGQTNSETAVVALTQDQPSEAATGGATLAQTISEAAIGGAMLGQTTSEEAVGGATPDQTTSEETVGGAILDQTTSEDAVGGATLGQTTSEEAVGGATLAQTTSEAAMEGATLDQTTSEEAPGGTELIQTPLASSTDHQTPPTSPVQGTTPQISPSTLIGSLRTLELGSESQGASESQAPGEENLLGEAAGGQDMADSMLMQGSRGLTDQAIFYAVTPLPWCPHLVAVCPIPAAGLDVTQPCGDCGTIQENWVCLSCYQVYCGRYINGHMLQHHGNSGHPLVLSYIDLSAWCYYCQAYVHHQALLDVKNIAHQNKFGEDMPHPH

Histone deacetylase 11 [4] = target: T1, Histone deacetylase 11; test: Inhibition of NanoLuc-tagged HDAC11 (unknown origin) by BRET assay
[5] = Kinetic solubility of the compound at pH 7.4; type: physicochemical; conditions: buffer, read-out: Kinetic_solubility
Histone deacetylase 1 = Histone deacetylase 1 (Homo sapiens, UniProt Q13547); test: Inhibition of full length recombinant human HDAC1 using fluorescent-labeled peptide as substrate by electrophoretic mobility shift assay
Histone deacetylase 3 = Histone deacetylase 3 (Homo sapiens, UniProt O15379); test: Inhibition of full length recombinant human HDAC3 using fluorescent-labeled peptide as substrate by electrophoretic mobility shift assay
Histone deacetylase 2 = Histone deacetylase 2 (Homo sapiens, UniProt Q92769); test: Inhibition of full length recombinant human HDAC2 using fluorescent-labeled peptide as substrate by electrophoretic mobility shift assay
Histone deacetylase 7 = target: T3, Histone deacetylase 7 (Homo sapiens, UniProt Q8WUI4); test: Inhibition of full length recombinant human HDAC7 using fluorescent-labeled peptide as substrate by electrophoretic mobility shift assay
T3 sequence (Q8WUI4 whole entry): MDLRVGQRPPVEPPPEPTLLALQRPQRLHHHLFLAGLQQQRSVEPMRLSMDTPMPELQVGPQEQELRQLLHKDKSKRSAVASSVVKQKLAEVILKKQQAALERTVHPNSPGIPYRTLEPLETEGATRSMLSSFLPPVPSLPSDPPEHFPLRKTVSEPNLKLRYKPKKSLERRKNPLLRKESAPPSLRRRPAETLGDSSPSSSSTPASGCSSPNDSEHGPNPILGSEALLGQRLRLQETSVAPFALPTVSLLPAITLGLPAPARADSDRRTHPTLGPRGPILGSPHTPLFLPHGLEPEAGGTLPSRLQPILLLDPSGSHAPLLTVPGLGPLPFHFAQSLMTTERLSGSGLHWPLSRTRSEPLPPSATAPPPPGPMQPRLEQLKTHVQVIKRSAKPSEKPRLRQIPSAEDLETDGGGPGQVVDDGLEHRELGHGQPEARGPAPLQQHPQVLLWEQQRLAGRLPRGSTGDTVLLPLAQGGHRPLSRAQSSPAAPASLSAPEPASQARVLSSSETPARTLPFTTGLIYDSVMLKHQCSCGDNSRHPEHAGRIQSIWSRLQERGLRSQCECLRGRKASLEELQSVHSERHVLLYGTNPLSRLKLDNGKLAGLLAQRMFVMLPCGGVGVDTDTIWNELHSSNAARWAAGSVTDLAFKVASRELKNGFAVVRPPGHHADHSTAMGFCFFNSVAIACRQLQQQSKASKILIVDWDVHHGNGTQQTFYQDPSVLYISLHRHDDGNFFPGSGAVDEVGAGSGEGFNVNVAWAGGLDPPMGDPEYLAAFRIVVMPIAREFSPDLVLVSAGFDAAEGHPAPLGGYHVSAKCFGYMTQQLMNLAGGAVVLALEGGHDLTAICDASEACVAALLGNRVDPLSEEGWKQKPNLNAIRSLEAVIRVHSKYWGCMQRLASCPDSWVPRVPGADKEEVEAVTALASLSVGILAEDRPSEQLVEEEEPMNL

Histone deacetylase 5 = Histone deacetylase 5 (Homo sapiens, UniProt Q9UQL6); test: Inhibition of full length recombinant human HDAC5 using fluorescent-labeled peptide as substrate by electrophoretic mobility shift assay
[6] = Permeability of the compound by PAMPA; type: ADME; conditions: read-out: permeability
[7] = target: T4, Polyamine deacetylase HDAC10 (Homo sapiens, UniProt Q969S8); test: Inhibition of full length recombinant human HDAC10 using fluorescent-labeled peptide as substrate by electrophoretic mobility shift assay
T4 sequence (Q969S8 whole entry): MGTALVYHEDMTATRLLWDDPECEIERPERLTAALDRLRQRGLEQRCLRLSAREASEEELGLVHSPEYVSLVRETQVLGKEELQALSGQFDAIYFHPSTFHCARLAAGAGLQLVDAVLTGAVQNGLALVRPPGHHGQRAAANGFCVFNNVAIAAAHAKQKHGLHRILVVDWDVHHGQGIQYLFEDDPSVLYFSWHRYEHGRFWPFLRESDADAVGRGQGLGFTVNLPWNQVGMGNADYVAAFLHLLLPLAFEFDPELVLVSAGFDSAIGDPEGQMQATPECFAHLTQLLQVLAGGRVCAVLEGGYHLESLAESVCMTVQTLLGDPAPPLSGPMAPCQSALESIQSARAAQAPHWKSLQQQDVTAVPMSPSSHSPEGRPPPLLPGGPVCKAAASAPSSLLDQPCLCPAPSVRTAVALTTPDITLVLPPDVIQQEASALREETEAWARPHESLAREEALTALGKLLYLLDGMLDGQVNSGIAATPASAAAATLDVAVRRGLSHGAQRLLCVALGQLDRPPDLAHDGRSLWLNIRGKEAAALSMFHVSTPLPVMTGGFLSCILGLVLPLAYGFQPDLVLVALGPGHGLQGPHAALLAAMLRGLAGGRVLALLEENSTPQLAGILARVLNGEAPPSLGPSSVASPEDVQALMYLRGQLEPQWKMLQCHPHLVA

Histone deacetylase 9 = Histone deacetylase 9 (Homo sapiens, UniProt Q9UKV0); test: Inhibition of full length recombinant human HDAC9 using fluorescent-labeled peptide as substrate by electrophoretic mobility shift assay
[8] = Bioavailability in Balb/c nude mouse at 5 mg/kg, ip; type: ADME, organism-based; conditions: in vivo
[9] = Half life in Balb/c nude mouse at 5 mg/kg, ip; type: ADME, organism-based; conditions: in vivo
[10] = Cmax in Balb/c nude mouse at 5 mg/kg, ip; type: ADME, organism-based; parameters: dose 5 mg/kg, route intraperitoneal; conditions: in vivo
[11] = AUClast in Balb/c nude mouse at 5 mg/kg, ip; type: ADME, organism-based; parameters: dose 5 mg/kg, time 0 - last, route intraperitoneal; conditions: in vivo
[12] = Volume of distribution at steady state in Balb/c nude mouse at 1 mg/kg, iv; type: ADME, organism-based; conditions: in vivo, read-out: Vdss
[13] = Clearance in Balb/c nude mouse at 1 mg/kg, iv; type: ADME, organism-based; conditions: in vivo
[14] = Initial plasma concentration in Balb/c nude mouse at 1 mg/kg, iv; type: ADME, organism-based
[15] = Half life in Balb/c nude mouse at 1 mg/kg, iv; type: ADME, organism-based; conditions: in vivo
[16] = AUClast in Balb/c nude mouse at 1 mg/kg, iv; type: ADME, organism-based; parameters: dose 1 mg/kg, time 0 - last, route intravenous; conditions: in vivo

Chain of Histone deacetylase 2 (Q92769 whole entry): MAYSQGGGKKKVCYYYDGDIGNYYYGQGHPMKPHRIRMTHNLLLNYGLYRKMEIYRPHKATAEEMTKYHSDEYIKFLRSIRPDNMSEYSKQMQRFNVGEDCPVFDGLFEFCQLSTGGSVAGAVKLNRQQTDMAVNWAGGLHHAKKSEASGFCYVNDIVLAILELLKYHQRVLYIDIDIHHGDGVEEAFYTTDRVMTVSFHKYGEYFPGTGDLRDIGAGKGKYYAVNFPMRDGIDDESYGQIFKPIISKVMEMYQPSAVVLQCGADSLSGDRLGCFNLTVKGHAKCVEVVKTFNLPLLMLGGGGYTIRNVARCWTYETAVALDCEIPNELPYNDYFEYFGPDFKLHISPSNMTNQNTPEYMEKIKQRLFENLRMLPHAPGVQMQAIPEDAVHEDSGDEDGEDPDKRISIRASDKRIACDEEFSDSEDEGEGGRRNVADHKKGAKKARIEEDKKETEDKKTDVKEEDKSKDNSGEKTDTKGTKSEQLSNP
Chain of Histone deacetylase 3 (O15379 whole entry): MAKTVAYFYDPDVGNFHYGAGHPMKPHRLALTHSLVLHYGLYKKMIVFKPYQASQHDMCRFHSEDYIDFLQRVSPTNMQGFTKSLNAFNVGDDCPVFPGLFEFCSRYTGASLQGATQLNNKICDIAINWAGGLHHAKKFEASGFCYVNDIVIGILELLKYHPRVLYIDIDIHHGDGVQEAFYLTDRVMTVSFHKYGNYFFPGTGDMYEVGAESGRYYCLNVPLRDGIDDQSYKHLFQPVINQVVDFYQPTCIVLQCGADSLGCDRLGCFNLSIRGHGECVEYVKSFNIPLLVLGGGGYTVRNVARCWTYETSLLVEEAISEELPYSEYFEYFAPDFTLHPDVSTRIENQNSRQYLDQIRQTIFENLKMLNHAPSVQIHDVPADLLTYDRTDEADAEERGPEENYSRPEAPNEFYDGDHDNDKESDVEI
Chain of Histone deacetylase 9 (Q9UKV0 whole entry): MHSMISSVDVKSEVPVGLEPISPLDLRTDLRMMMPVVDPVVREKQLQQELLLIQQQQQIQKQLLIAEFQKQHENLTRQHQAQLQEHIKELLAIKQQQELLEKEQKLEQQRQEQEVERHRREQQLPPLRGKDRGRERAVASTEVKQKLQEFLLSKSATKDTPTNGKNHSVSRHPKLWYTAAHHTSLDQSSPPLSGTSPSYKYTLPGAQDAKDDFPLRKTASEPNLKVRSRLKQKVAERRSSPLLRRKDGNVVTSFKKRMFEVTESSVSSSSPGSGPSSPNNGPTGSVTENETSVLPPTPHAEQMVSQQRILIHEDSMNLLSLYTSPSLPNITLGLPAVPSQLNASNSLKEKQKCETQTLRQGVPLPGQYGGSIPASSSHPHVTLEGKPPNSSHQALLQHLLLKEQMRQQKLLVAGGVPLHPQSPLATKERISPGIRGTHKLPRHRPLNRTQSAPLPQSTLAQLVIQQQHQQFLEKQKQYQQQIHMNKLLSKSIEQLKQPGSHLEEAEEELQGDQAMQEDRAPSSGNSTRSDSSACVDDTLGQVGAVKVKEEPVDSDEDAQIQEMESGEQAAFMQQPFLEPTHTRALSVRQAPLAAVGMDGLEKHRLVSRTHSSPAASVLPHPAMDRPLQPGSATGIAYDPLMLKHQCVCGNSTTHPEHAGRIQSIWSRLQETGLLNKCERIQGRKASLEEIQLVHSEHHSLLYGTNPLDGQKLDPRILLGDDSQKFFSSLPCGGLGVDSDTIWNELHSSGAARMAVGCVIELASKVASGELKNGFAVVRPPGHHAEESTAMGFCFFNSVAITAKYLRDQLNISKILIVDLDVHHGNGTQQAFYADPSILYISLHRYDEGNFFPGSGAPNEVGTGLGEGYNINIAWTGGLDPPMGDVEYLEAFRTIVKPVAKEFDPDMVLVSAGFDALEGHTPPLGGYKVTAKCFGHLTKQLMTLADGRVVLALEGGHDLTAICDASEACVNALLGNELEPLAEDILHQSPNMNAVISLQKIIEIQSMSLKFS
Chain of Histone deacetylase 5 (Q9UQL6 whole entry): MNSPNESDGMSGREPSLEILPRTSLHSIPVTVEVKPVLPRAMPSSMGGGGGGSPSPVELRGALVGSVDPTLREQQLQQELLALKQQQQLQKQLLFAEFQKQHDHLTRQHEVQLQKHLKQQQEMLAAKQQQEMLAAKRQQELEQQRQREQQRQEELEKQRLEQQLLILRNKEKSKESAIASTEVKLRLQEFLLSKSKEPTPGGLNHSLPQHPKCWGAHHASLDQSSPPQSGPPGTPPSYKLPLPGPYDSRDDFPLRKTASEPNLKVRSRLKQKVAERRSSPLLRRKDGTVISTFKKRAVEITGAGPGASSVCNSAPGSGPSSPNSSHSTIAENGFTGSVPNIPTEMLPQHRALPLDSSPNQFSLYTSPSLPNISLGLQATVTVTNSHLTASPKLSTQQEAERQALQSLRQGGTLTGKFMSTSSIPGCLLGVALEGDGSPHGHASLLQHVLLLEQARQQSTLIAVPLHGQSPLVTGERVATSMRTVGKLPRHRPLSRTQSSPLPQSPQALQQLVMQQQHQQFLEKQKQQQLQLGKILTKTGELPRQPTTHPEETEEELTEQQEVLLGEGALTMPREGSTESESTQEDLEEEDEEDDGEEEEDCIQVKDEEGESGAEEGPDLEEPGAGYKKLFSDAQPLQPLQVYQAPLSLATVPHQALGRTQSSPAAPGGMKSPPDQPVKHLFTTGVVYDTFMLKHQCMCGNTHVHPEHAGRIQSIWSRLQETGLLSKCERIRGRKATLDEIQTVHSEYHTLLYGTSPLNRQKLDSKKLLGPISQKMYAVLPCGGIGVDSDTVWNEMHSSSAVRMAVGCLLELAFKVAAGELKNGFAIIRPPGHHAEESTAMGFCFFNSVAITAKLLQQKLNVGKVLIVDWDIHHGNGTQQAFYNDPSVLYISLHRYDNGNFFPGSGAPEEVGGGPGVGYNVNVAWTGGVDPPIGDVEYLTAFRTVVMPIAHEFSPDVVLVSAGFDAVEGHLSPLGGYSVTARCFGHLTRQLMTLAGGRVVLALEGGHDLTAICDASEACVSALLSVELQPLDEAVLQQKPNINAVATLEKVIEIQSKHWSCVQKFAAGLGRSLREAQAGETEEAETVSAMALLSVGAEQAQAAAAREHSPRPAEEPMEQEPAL
Chain of Histone deacetylase 1 (Q13547 whole entry): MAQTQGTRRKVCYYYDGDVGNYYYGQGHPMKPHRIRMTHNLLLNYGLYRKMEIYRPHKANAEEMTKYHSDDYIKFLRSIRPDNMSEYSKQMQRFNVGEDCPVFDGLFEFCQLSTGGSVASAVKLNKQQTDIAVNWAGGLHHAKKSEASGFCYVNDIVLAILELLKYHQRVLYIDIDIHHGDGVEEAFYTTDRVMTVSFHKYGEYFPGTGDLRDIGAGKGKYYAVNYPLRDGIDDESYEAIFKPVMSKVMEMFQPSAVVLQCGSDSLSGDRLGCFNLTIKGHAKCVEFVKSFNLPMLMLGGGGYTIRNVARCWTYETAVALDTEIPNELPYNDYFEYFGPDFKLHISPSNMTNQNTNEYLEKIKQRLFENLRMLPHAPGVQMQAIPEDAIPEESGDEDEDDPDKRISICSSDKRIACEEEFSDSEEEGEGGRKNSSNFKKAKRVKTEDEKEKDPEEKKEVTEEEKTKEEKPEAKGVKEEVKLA

IC50 (Histone deacetylase 11 [1])	microsomal CLint [2]	IC50 [3]	solubility kinetic [5]	Papp [6]	SMILES	also measured
0.3 µM	317 µL/min/mg				O=C(NO)c1cccc2c1CN(C1=NC3CCCCC3N1)C2 (stereo unspecified)	
4.6 µM		0.082 µM			O=C(NO)c1cccc2c1CN(c1nc3ccccc3[nH]1)CC2	
0.035 µM	323 µL/min/mg				O=C(NO)c1cccc2c1CN(c1nc3ccccc3s1)C2	
0.027 µM	7 µL/min/mg		82 µM (≈ 28.9 µg/mL)		CC1(C)c2cccc(C(=O)NO)c2CN1c1cnc(C(F)(F)F)nc1	IC50 (Histone deacetylase 11 [4]): 0.27 µM
	22 µL/min/mg	> 10 µM	31 µM (≈ 10.9 µg/mL)	13 ×10⁻⁶ cm/s	CC1(C)c2cccc(C(=O)NO)c2CN1c1cnc(C(F)(F)F)cn1	IC50 (Histone deacetylase 1): > 10 µM; IC50 (Histone deacetylase 3): > 10 µM; IC50 (Histone deacetylase 2): > 10 µM; IC50 (Histone deacetylase 7): > 10 µM; IC50 (Histone deacetylase 5): > 10 µM; IC50 [7]: > 10 µM; IC50 (Histone deacetylase 9): > 10 µM
1.2 µM	< 7 µL/min/mg	> 10 µM			O=C(NO)c1cccc2c1CCN(c1nc3ccccc3[nH]1)C2	
0.002 µM	12 µL/min/mg		51 µM (≈ 19.9 µg/mL)	0.1 ×10⁻⁶ cm/s	CC1(C)c2cccc(C(=O)NO)c2CN1c1nc2ccc(C(F)(F)F)cc2[nH]1	
0.17 µM	17 µL/min/mg	> 10 µM			O=C(NO)c1cccc2c1CN(c1nc3ccccc3[nH]1)C2	bioavailability [8]: 81%; half-life [9]: 10.2 h; Cmax [10]: 4.2 µM; AUC(0-t) [11]: 3.8 µM·h
0.003 µM	12 µL/min/mg		51 µM (≈ 17.9 µg/mL)	8 ×10⁻⁶ cm/s	CC1(C)c2cccc(C(=O)NO)c2CN1c1ccc(C(F)(F)F)nc1	IC50 (Histone deacetylase 11 [4]): 0.012 µM
0.002 µM	140 µL/min/mg				O=C(NO)c1cccc2c1CN(c1nc3ccc(C(F)(F)F)cc3[nH]1)C2	
2.3 µM	88 µL/min/mg				Cc1nc(N2Cc3cccc(C(=O)NO)c3C2)[nH]c1C	
0.005 µM	21 µL/min/mg		32 µM (≈ 11.3 µg/mL)	18 ×10⁻⁶ cm/s	CC1(C)c2cccc(C(=O)NO)c2CN1c1ncc(C(F)(F)F)cn1	IC50 (Histone deacetylase 11 [4]): 0.085 µM
> 10 µM		0.002 µM			O=C(NO)c1ccc2c(c1)CCN(c1nc3ccccc3[nH]1)C2	
0.002 µM	7 µL/min/mg		78 µM (≈ 25.3 µg/mL)	0.7 ×10⁻⁶ cm/s	CC1(C)c2cccc(C(=O)NO)c2CN1c1nc2ncccc2o1	IC50 (Histone deacetylase 11 [4]): 0.02 µM
0.03 µM	161 µL/min/mg	2.8 µM			O=C(NO)c1cccc2c1CCN(c1nc3ccccc3[nH]1)CC2	
0.006 µM	28 µL/min/mg		8 µM (≈ 2.81 µg/mL)	12 ×10⁻⁶ cm/s	CC1(C)c2cccc(C(=O)NO)c2CN1c1ccc(C(F)(F)F)cn1	IC50 (Histone deacetylase 11 [4]): 0.13 µM
0.007 µM	81 µL/min/mg				O=C(NO)c1cccc2c1CN(c1ccc(C(F)(F)F)cn1)C2	
0.026 µM	92 µL/min/mg				O=C(NO)c1cccc2c1CN(c1ccc3ccccc3n1)C2	
0.007 µM	313 µL/min/mg				O=C(NO)c1cccc2c1CN(c1nc3ccccc3o1)C2	
2.1 µM		0.004 µM			O=C(NO)c1ccc2c(c1)CN(c1nc3ccccc3[nH]1)CC2	Vd [12]: 18 L/kg; clearance [13]: 42 mL/min/kg; C0 [14]: 3.5 µM; half-life [15]: 9.4 h; AUC(0-t) [16]: 1 µM·h
0.001 µM	10 µL/min/mg		4 µM (≈ 1.57 µg/mL)	7 ×10⁻⁶ cm/s	CC1(C)c2cccc(C(=O)NO)c2CN1c1nc2cc(C(F)(F)F)ccc2o1	
